Source: US4983600A, “Heterocyclic compounds useful as 5-HT3 antagonists” (John Wyeth & Brother Limited, priority 1987, dated 1991)

Experiments:
[1] = potential anxiolytic activity: mouse exploratory activity in a two-compartment light/dark box; assay type: in vivo; conditions: mice, Student's unpaired t-test vs vehicle, *P<0.05, **P<0.01, ***P<0.001
Method: The compounds of the invention are tested for potential anxiolytic activity by a test procedure measuring mouse exploratory activity in a two-compartment light/dark box based upon the procedure of B Costall et al, Neuropharmacology, 1987, 26, 195-200 and J N Crawley et al, Pharmac. Biochem. Behav., 1980, 13, 167-170. The test involves observing groups of mice placed in an open topped box, one third of which is painted black and illuminated under a dim red light and partitioned from the remainder of the box which is painted white and brightly illuminated. Access between the two sections is via an opening in the centre of the partition. The groups of mice are treated with vehicle or test compound and various behavioural parameters of the animals are measured including the number of exploratory rearings made by the mice in each section and the number of times the mice cross lines marked on the floor of each section. For each treatment group the mean number of line crossings and rears in each section of the box are calculated. Differences between drug-treated groups and vehicle-treated controls are compared using Student's unpaired t-test. […] Test compounds are considered to be active if they induce a similar set of changes and, in particular, if they produce a significant (p<0.05) increase in rearing activity in the light section of the box.

[2] = biological target: T1, 5-HT3 receptors (Oryctolagus cuniculus, UniProt A0A5F9C9J3); experiment: 5-HT3 antagonistic activity in the isolated right atrium of the rabbit heart; assay type: cell-based; conditions: 10^-5 M 5-HT, read-out: -log IC50 (chronotropic response to 10^-5 M 5-HT) (converted)
T1 construct: isolated right atrium of the rabbit heart; from tissue; host or cells: rabbit heart, isolated right atrium (sympathetic nerve terminals)
T1 sequence (A0A5F9C9J3 1-494): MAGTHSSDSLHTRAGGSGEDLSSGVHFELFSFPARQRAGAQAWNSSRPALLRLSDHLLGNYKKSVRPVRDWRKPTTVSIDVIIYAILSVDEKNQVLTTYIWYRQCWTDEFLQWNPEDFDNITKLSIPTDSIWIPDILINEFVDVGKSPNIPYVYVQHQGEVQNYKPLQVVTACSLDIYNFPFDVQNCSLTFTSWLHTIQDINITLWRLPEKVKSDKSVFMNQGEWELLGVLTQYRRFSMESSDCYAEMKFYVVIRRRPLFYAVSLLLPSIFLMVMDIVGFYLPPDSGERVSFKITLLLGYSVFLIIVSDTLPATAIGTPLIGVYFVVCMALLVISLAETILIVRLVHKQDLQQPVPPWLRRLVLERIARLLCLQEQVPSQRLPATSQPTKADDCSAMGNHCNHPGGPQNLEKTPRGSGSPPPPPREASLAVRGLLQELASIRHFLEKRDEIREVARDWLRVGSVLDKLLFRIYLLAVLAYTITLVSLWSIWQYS
Method: In particular they antagonise specific 5-hydroxytryptamine (5-HT) receptors in warm blooded animals. […] 5-HT3 -antagonists are also termed "antagonists of "neuronal" 5-hydroxytryptamine receptors" and "serotonin (5-hydroxytryptamine) M-receptor antagonists". Such compounds have been described as being useful inter alia in the treatment of migraine, emesis, anxiety, gastrointestinal disorders and as anti-psychotics.
The compounds of the invention are tested for 5-HT3 antagonistic activity in the isolated right atrium of the rabbit heart based upon the method of Fozard J. R., Naunyn-Schmiedeberg's Arch. Pharmacol., 1984, 326, 36-44. This procedure relies upon the ability of 5-HT to stimulate 5-HT3 receptors present on sympathetic nerve terminals in the heart, causing release of noradrenaline which evokes an increase in the spontaneous rate of beating. The antagonist potency is expressed as -log IC50 (where IC50 is the chronotropic response to 10^-5 M 5-HT by 50%)

[3] = 2.0 mg/kg s.c., standard anxiolytic

Row | Structure (SMILES) | % Change Relative to Controls: Line Crossings [1, 3] | % Change Relative to Controls: Rears [1, 3] | IC50 [2] [nM] | % Change Relative to Controls: Line Crossings ([1]; 0.1 mg/kg s.c.) | % Change Relative to Controls: Rears ([1]; 0.1 mg/kg s.c.) | % Change Relative to Controls: Line Crossings ([1]; 1.0 mg/kg s.c.) | % Change Relative to Controls: Rears ([1]; 1.0 mg/kg s.c.)
1 | CNC1=Nc2ccc(Cl)cc2C(c2ccccc2)=[N+]([O-])C1 [Chlordiazepoxide, reference compound] | +42% | +77% |  |  |  |  | 
2 | O=C(Nc1cc(Cl)cc(Cl)c1)NC1CN2CCC1CC2 (stereo not shown) [Example 1] |  |  | 5.01 | +40% | +85% |  | 
3 | COc1ccccc1C(=O)NC(=O)NC1CN2CCC1CC2 (stereo not shown) [Example 5, N-[[[1-Azabicyclo[2.2.2]octan-3-yl]amino]carbonyl]-2-methoxybenzamide] |  |  | 2.14 | +20% | +73% |  | 
4 | O=C(Nc1cc(Cl)cc(Cl)c1)N[C@@H]1CN2CCC1CC2 [Example 12, (S)-(-)-N-(1-Azabicyclo[2.2.2]octan-3-yl)-N'-(3,5-dichlorophenyl)urea] |  |  | 0.501 |  |  | +42% | +75%
5 | O=C(Nc1cc(Cl)cc(Cl)c1)N[C@H]1CN2CCC1CC2 [Example 13, (R)-(+)-N-(1-Azabicyclo[2.2.2]octan-3-yl)-N'-(3,5-dichlorophenyl)urea] |  |  |  | +69% | +90% |  | 
